According to patent US7928063B2, “Analogs of human growth hormone-releasing hormone, their preparation and use” (Instytut Farmaceutyczny, priority 2001, dated 2011):
Where two headings read alike, the source gives them in different places. Square brackets hold non-standard residues; d marks the D form. Peptide text beside a SMILES is read from it. * marks the point of attachment. Desaminotyrosyl = O=C(CCc1ccc(O)cc1)*; hArg = N=C(N)NCCCC[C@H](N)C(=O)O; Agb = N=C(N)NCC[C@H](N)C(=O)O; Nle = CCCC[C@H](N)C(=O)O

Test system: trypsin
Experiment: Trypsin digestion test (enzymatic resistance, HPLC)
Format: in vitro ADME
Protocol: The compounds prepared were also tested for enzymatic resistance in the trypsin digestion test. […] Subsequently, a trypsin solution was added (100 μl; 0.02 mg/ml; Serva, 36 U/mg). […] An aliquot (500 μl) was withdrawn and diluted with 0.5 M acetic acid (1 ml), then lyophilized. The material obtained was analyzed by HPLC, using a Knauer system with an Eurospher 100 C18 (4.6×250 mm, 5 micron) column. The following solvent systems were used: A, 0.1% TFA in water; […]

[1] = isolated enzyme trypsin, pH 8.5

Resistance to trypsin digestion (in words) (after 30 minutes) | remaining at 0.5 h, 0.4 mg/ml (trypsin solution (Serva, 36 U/mg), trypsin, pH 8.5, 37° C., digestion time 30 min., read-out: % Unchanged compound) | remaining at 1 h, 0.4 mg/ml (trypsin solution (Serva, 36 U/mg), trypsin, pH 8.5, 37° C., digestion time 60 min., read-out: % Unchanged compound) | remaining at 0.5 h, 0.4 mg/ml [1] | remaining at 1 h, 0.4 mg/ml [1] | Compound
complete digestion | 0% | 0% | – | – | CC[C@H](C)[C@H](NC(=O)[C@H](C)NC(=O)[C@H](CC(=O)O)NC(=O)[C@H](C)NC(=O)[C@@H](N)Cc1ccc(O)cc1)C(=O)N[C@@H](Cc1ccccc1)C(=O)N[C@H](C(=O)N[C@@H](CC(N)=O)C(=O)N[C@@H](CO)C(=O)N[C@@H](Cc1ccc(O)cc1)C(=O)N[C@@H](CCCNC(=N)N)C(=O)N[C@@H](CCCCN)C(=O)N[C@H](C(=O)N[C@@H](CC(C)C)C(=O)NCC(=O)N[C@@H](CCC(N)=O)C(=O)N[C@@H](CC(C)C)C(=O)N[C@@H](CO)C(=O)N[C@@H](C)C(=O)N[C@@H](CCCNC(=N)N)C(=O)N[C@@H](CCCCN)C(=O)N[C@@H](CC(C)C)C(=O)N[C@@H](CC(C)C)C(=O)N[C@@H](CCC(N)=O)C(=O)N[C@@H](CC(=O)O)C(=O)N[C@H](C(=O)N[C@@H](CCSC)C(=O)N[C@@H](CO)C(=O)N[C@@H](CCCNC(=N)N)C(N)=O)[C@@H](C)CC)C(C)C)[C@@H](C)O [hGH-RH(1-29)-NH2, reference compound]
– | – | – | 82% | 67% | CCCC[C@H](NC(=O)[C@@H](NC(=O)[C@H](CC(=O)O)NC(=O)[C@H](CCC(N)=O)NC(=O)[C@H](CC(C)C)NC(=O)[C@H](CC(C)C)NC(=O)[C@H](CCNC(=N)N)NC(=O)[C@H](CCNC(=N)N)NC(=O)[C@H](C)NC(=O)[C@H](CO)NC(=O)[C@H](CC(C)C)NC(=O)[C@H](CCC(N)=O)NC(=O)[C@H](C)NC(=O)[C@H](CC(C)C)NC(=O)[C@@H](NC(=O)[C@H](CCNC(=N)N)NC(=O)[C@H](CCCCNC(=N)N)NC(=O)[C@H](Cc1ccc(O)cc1)NC(=O)[C@H](CO)NC(=O)[C@H](CC(N)=O)NC(=O)[C@@H](NC(=O)[C@H](Cc1ccccc1)NC(=O)[C@@H](NC(=O)[C@H](C)NC(=O)[C@H](CC(=O)O)NC(=O)[C@H](C)NC(=O)CCc1ccc(O)cc1)[C@@H](C)CC)[C@@H](C)O)C(C)C)[C@@H](C)CC)C(=O)N[C@@H](CC(=O)O)C(=O)N[C@@H](CCNC(=N)N)C(N)=O [Compound 4, Dat-Ala-Asp-Ala-Ile-Phe-Thr-Asn-Ser-Tyr^10-hArg-Gab-Val-Leu-Ala-Gln-Leu-Ser-Ala-Gab-Gab-Leu-Leu-Gln-Asp-Ile-Nle-Asp-Gab-NH2] (Desaminotyrosyl-ADAIFTNSY[hArg][Agb]VLAQLSA[Agb][Agb]LLQDI[Nle]D[Agb]-NH2)
– | – | – | 85% | 73% | CCCC[C@H](NC(=O)[C@@H](NC(=O)[C@H](CC(=O)O)NC(=O)[C@H](CCC(N)=O)NC(=O)[C@H](CC(C)C)NC(=O)[C@H](CC(C)C)NC(=O)[C@H](CCCCNC(=N)N)NC(=O)[C@H](CCCCNC(=N)N)NC(=O)[C@H](C)NC(=O)[C@H](CO)NC(=O)[C@H](CC(C)C)NC(=O)[C@H](CCC(N)=O)NC(=O)[C@H](C)NC(=O)[C@H](CC(C)C)NC(=O)[C@@H](NC(=O)[C@H](CCNC(=N)N)NC(=O)[C@H](CCCCNC(=N)N)NC(=O)[C@H](Cc1ccc(O)cc1)NC(=O)[C@H](CO)NC(=O)[C@H](CC(N)=O)NC(=O)[C@@H](NC(=O)[C@H](Cc1ccccc1)NC(=O)[C@@H](NC(=O)[C@H](C)NC(=O)[C@H](CC(=O)O)NC(=O)[C@H](C)NC(=O)CCc1ccc(O)cc1)[C@@H](C)CC)[C@@H](C)O)C(C)C)[C@@H](C)CC)C(=O)N[C@@H](CC(=O)O)C(=O)N[C@H](CCCNC(=N)N)C(N)=O [Compound 6, Dat-Ala-Asp-Ala-Ile-Phe-Thr-Asn-Ser-Tyr^10-hArg-Gab-Val-Leu-Ala-Gln-Leu-Ser-Ala-hArg-hArg-Leu-Leu-Gln-Asp-Ile-Nle-Asp-D-Arg-NH2] (Desaminotyrosyl-ADAIFTNSY[hArg][Agb]VLAQLSA[hArg][hArg]LLQDI[Nle]D[dR]-NH2)
